IC50 data for 22 molecules are collected here from US20250136586A1, “Substituted 7-(Pyrimidin-4-yl)Quinolin-4(1H)-One Compounds as Cyclin Dependent Kinase Inhibitors” (BeiGene, Ltd., priority 2022, published 2025).

Assay [1] concerns the target CDK4/Cyclin D1 (Homo sapiens (Human), UniProt P11802). Kind of assay: TR-FRET kinase inhibition assay, CDK4/Cyclin D1. In kind it is biochemical. Conditions: 1 mM ATP, 0.15 μM Rb (Ser780)-biotin substrate, read-out: CDK4D1 IC50. In a few lines: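 Kinase was preincubated with compound for 60 min at room temperature, then reacted with ATP and Rb (Ser780)-biotin substrate for 120 min. IC50 came from a four-parameter logistic fit.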
In general terms: Time-resolved FRET reads energy transfer from a long-lived donor to a nearby acceptor.

The target in assay [2] is CDK6/Cyclin D3 (Homo sapiens (Human), UniProt Q00534). Kind of assay: TR-FRET kinase inhibition assay, CDK6/Cyclin D3. Format: biochemical. Conditions: 1 mM ATP, 0.15 μM Rb (Ser780)-biotin substrate, read-out: CDK6D3 IC50. In a few lines:
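Kinase preincubated 60 min at room temperature with 0–10 μM compound; reaction started with 1 mM ATP and 0.15 μM Rb (Ser780)-biotin, run 120 min at room temperature in HEPES pH 7.0, 50 mM MgCl2. pRb detected by TR-FRET (665/620 nm ratio); IC50 from four-parameter logistic fit.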

The structures appear in SMILES notation.

Sequence of CDK6/Cyclin D3 (Q00534 whole entry): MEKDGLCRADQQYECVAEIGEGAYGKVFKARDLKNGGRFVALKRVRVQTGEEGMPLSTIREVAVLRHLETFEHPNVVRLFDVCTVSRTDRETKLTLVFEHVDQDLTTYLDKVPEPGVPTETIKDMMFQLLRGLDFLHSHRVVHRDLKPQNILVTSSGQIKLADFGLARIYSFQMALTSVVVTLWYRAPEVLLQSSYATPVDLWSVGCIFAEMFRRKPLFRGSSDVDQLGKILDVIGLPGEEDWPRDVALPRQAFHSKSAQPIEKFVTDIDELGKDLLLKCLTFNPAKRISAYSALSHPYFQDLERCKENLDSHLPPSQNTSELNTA
Sequence of CDK6/Cyclin D3 (P30281 whole entry partner): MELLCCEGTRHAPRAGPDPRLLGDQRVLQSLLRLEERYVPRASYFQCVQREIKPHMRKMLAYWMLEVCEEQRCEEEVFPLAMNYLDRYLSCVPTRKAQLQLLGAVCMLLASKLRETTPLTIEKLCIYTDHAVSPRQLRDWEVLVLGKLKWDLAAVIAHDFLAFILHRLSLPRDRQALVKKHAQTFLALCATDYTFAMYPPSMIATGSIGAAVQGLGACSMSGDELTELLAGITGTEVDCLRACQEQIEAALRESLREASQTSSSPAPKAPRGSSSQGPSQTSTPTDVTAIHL
Sequence of CDK4/Cyclin D1 (P11802 whole entry): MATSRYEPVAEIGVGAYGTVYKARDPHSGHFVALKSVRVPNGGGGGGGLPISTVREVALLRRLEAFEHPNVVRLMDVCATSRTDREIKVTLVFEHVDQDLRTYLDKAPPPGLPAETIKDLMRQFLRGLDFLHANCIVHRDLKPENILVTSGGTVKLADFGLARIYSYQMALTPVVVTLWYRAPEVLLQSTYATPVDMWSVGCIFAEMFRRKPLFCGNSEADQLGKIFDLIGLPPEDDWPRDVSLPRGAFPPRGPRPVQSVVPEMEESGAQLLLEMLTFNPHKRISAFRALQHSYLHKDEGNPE
Sequence of CDK4/Cyclin D1 (P24385 whole entry partner): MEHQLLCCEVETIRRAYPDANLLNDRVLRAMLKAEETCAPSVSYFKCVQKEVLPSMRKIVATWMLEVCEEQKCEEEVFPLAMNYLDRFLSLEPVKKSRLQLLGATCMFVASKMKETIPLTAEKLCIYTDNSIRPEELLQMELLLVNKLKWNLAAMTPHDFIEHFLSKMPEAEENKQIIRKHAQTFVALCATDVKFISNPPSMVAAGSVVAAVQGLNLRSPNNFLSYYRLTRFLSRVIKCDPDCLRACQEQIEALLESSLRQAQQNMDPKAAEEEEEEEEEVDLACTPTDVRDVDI

Turning to `CC(C)n1c(CN2CCC[C@H](O)C2)cc(=O)c2ccc(-c3nc(N[C@@H]4CCOC[C@H]4O)ncc3F)cc21` [Example 56, 7-(5-fluoro-2-(((3S,4R)-3-hydroxytetrahydro-2H-pyran-4-yl)amino)pyrimidin-4-yl)-2-(((S)-3-hydroxypiperidin-1-yl)methyl)-1-isopropylquinolin-4(1H)-one], the IC50 in assay [1] was 7 nM; in assay [2] it was 238 nM.
Regarding `CC(C)n1c(CN2C[C@H]3C[C@@H]2CO3)cc(=O)c2ccc(-c3nc(N[C@@H]4CCOC[C@H]4O)ncc3F)cc21` [Example 33, 2-(((1R,4R)-2-oxa-5-azabicyclo[2.2.1]heptan-5-yl)methyl)-7-(5-fluoro-2-(((3S,4R)-3-hydroxytetrahydro-2H-pyran-4-yl)amino)pyrimidin-4-yl)-1-isopropylquinolin-4(1H)-one], the IC50 in assay [1] is 12 nM; in assay [2] it was 324 nM.
Turning to `CC(C)n1c(CN2CCOCC2)cc(=O)c2ccc(-c3nc(N[C@@H]4CCOC[C@H]4O)ncc3Cl)cc21` [Example 26, 7-(5-chloro-2-(((3S,4R)-3-hydroxytetrahydro-2H-pyran-4-yl)amino)pyrimidin-4-yl)-1-isopropyl-2-(morpholinomethyl)quinolin-4(1H)-one], the IC50 in assay [1] is 16 nM; in assay [2], 336 nM.
Consider `CNC(=O)c1cc(=O)c2ccc(-c3nc(N[C@@H]4CCOC[C@H]4O)ncc3Cl)cc2n1C(C)C` [Example 14, 7-(5-chloro-2-(((3S,4R)-3-hydroxytetrahydro-2H-pyran-4-yl)amino)pyrimidin-4-yl)-1-isopropyl-N-methyl-4-oxo-1,4-dihydroquinoline-2-carboxamide], for which the IC50 amounted to 42 nM in assay [1] and 714 nM in assay [2].
Take `Cc1c(CN2CCC[C@H](O)C2)n(C(C)C)c2cc(-c3nc(N[C@@H]4CCOC[C@H]4O)ncc3F)ccc2c1=O` [Example 123, 7-(5-fluoro-2-(((3S,4R)-3-hydroxytetrahydro-2H-pyran-4-yl)amino)pyrimidin-4-yl)-2-(((S)-3-hydroxypiperidin-1-yl)methyl)-1-isopropyl-3-methylquinolin-4(1H)-one]: the IC50 came out at 4.3 nM in assay [1] and 129 nM in assay [2].
On to `CC(C)n1cc(C2CC2)c(=O)c2ccc(-c3nc(N[C@@H]4CCOC[C@H]4O)ncc3F)cc21` [Example 9, 3-cyclopropyl-7-(5-fluoro-2-(((3S,4R)-3-hydroxytetrahydro-2H-pyran-4-yl)amino)pyrimidin-4-yl)-1-isopropylquinolin-4(1H)-one], for which the IC50 in assay [1] worked out at 59 nM; in assay [2] it was 590 nM.
For `CC(C)n1c(CN2C[C@H](O)[C@@H](F)C2)cc(=O)c2ccc(-c3nc(N[C@@H]4CCOC[C@H]4O)ncc3F)cc21` [Example 32, 7-(5-fluoro-2-(((3S,4R)-3-hydroxytetrahydro-2H-pyran-4-yl)amino)pyrimidin-4-yl)-2-(((3S,4S)-3-fluoro-4-hydroxypyrrolidin-1-yl)methyl)-1-isopropylquinolin-4(1H)-one] the same measures were 10 nM and 200 nM.
For `CC(C)n1c(CN2CCC(C#N)CC2)cc(=O)c2ccc(-c3nc(N[C@@H]4CCOC[C@H]4O)ncc3F)cc21` [Example 37, 1-((7-(5-fluoro-2-(((3S,4R)-3-hydroxytetrahydro-2H-pyran-4-yl)amino)pyrimidin-4-yl)-1-isopropyl-4-oxo-1,4-dihydroquinolin-2-yl)methyl)piperidine-4-carbonitrile] the same measures were 22 nM and 682 nM.
Taken in the same sequence, the figures for `CC(C)n1c(CN2C[C@@H](O)[C@H](F)C2)cc(=O)c2ccc(-c3nc(N[C@@H]4CCOC[C@H]4O)ncc3F)cc21` [Example 46, 7-(5-fluoro-2-(((3S,4R)-3-hydroxytetrahydro-2H-pyran-4-yl)amino)pyrimidin-4-yl)-2-(((3R,4R)-3-fluoro-4-hydroxypyrrolidin-1-yl)methyl)-1-isopropylquinolin-4(1H)-one] were 12 nM and 480 nM.
Turning to `Cc1c(CN[C@H]2CCOC2)n(C(C)C)c2cc(-c3nc(N[C@@H]4CCOC[C@H]4O)ncc3F)ccc2c1=O` [Example 113, 7-(5-fluoro-2-(((3S,4R)-3-hydroxytetrahydro-2H-pyran-4-yl)amino)pyrimidin-4-yl)-1-isopropyl-3-methyl-2-((((S)-tetrahydrofuran-3-yl)amino)methyl)quinolin-4(1H)-one], the IC50 in assay [1] stood at 17 nM; in assay [2] it was 663 nM.
As to `Cc1c(CO)n(C(C)C)c2cc(-c3nc(N[C@@H]4CCOC[C@H]4O)ncc3F)ccc2c1=O` [Example 119, 7-(5-fluoro-2-(((3S,4R)-3-hydroxytetrahydro-2H-pyran-4-yl)amino)pyrimidin-4-yl)-2-(hydroxymethyl)-1-isopropyl-3-methylquinolin-4(1H)-one], the IC50 in assay [1] was determined as 9.1 nM; in assay [2] it was 273 nM.
For the molecule `Cc1c(C)n(C(C)C)c2cc(-c3nc(N[C@@H]4CCOC[C@H]4O)ncc3F)ccc2c1=O` [Example 16, 7-(5-fluoro-2-(((3S,4R)-3-hydroxytetrahydro-2H-pyran-4-yl)amino)pyrimidin-4-yl)-1-isopropyl-2,3-dimethylquinolin-4(1H)-one], the IC50 in assay [1] was determined as 8.3 nM; in assay [2], 257 nM.
Taken in the same sequence, the figures for `CC(C)n1c(CN2CC[C@@H](O)C2)cc(=O)c2ccc(-c3nc(N[C@@H]4CCOC[C@H]4O)ncc3F)cc21` [Example 87, 7-(5-fluoro-2-(((3S,4R)-3-hydroxytetrahydro-2H-pyran-4-yl)amino)pyrimidin-4-yl)-2-(((R)-3-hydroxypyrrolidin-1-yl)methyl)-1-isopropylquinolin-4(1H)-one] were 22 nM and 682 nM.
For `Cc1c(CN2CCCC(F)(F)C2)n(C(C)C)c2cc(-c3nc(N[C@@H]4CCOC[C@H]4O)ncc3F)ccc2c1=O` [Example 116, 2-((3,3-difluoropiperidin-1-yl)methyl)-7-(5-fluoro-2-(((3S,4R)-3-hydroxytetrahydro-2H-pyran-4-yl)amino)pyrimidin-4-yl)-1-isopropyl-3-methylquinolin-4(1H)-one] the same measures were 3.9 nM and 176 nM.
Taken in the same sequence, the figures for `CC(C)n1c(CNC2CCC2)cc(=O)c2ccc(-c3nc(N[C@@H]4CCOC[C@H]4O)ncc3F)cc21` [Example 76, 2-((cyclobutylamino)methyl)-7-(5-fluoro-2-(((3S,4R)-3-hydroxytetrahydro-2H-pyran-4-yl)amino)pyrimidin-4-yl)-1-isopropylquinolin-4(1H)-one] were 28 nM and 588 nM.
Take `Cc1c(CN2CCOCC2)n(C(C)C)c2cc(-c3nc(N[C@@H]4CCOC[C@H]4O)ncc3F)ccc2c1=O` [Example 58, 7-(5-fluoro-2-(((3S,4R)-3-hydroxytetrahydro-2H-pyran-4-yl)amino)pyrimidin-4-yl)-1-isopropyl-3-methyl-2-(morpholinomethyl)quinolin-4(1H)-one]: the IC50 is 3.4 nM in assay [1] and 78.2 nM in assay [2].
For `CCc1cc(=O)c2ccc(-c3nc(N[C@@H]4CCOC[C@H]4O)ncc3F)cc2n1C(C)C` [Example 55, 2-ethyl-7-(5-fluoro-2-(((3S,4R)-3-hydroxytetrahydro-2H-pyran-4-yl)amino)pyrimidin-4-yl)-1-isopropylquinolin-4(1H)-one], the IC50 amounted to 15 nM in assay [1] and 345 nM in assay [2].
For `CC(C)n1c(CN2CCC3(CCCO3)CC2)cc(=O)c2ccc(-c3nc(N[C@@H]4CCOC[C@H]4O)ncc3F)cc21` [Example 44, 2-((1-oxa-8-azaspiro[4.5]decan-8-yl)methyl)-7-(5-fluoro-2-(((3S,4R)-3-hydroxytetrahydro-2H-pyran-4-yl)amino)pyrimidin-4-yl)-1-isopropylquinolin-4(1H)-one], the IC50 in assay [1] was found to be 29 nM; in assay [2], 1280 nM.
Regarding `CC(C)n1c(CNc2cccc(Cl)c2)cc(=O)c2ccc(-c3nc(N[C@@H]4CCOC[C@H]4O)ncc3F)cc21` [Example 95, 2-(((3-chlorophenyl)amino)methyl)-7-(5-fluoro-2-(((3S,4R)-3-hydroxytetrahydro-2H-pyran-4-yl)amino)pyrimidin-4-yl)-1-isopropylquinolin-4(1H)-one], the IC50 in assay [1] worked out at 13 nM; in assay [2], 208 nM.
For `CC(C)n1c(CN2CCC(C)(C)C2)cc(=O)c2ccc(-c3nc(N[C@@H]4CCOC[C@H]4O)ncc3F)cc21` [Example 42, 2-((3,3-dimethylpyrrolidin-1-yl)methyl)-7-(5-fluoro-2-(((3S,4R)-3-hydroxytetrahydro-2H-pyran-4-yl)amino)pyrimidin-4-yl)-1-isopropylquinolin-4(1H)-one] the same measures were 15 nM and 645 nM.
Taken in the same sequence, the figures for `CC(C)n1c(CN[C@@H]2CCOC2)cc(=O)c2ccc(-c3nc(N[C@@H]4CCOC[C@H]4O)ncc3F)cc21` [Example 65, 7-(5-fluoro-2-(((3S,4R)-3-hydroxytetrahydro-2H-pyran-4-yl)amino)pyrimidin-4-yl)-1-isopropyl-2-((((R)-tetrahydrofuran-3-yl)amino)methyl)quinolin-4(1H)-one] were 31 nM and 744 nM.
For the molecule `CC(C)n1c(CN2C[C@@H](F)[C@@H](O)C2)cc(=O)c2ccc(-c3nc(N[C@@H]4CCOC[C@H]4O)ncc3F)cc21` [Example 45, 7-(5-fluoro-2-(((3S,4R)-3-hydroxytetrahydro-2H-pyran-4-yl)amino)pyrimidin-4-yl)-2-(((3R,4S)-3-fluoro-4-hydroxypyrrolidin-1-yl)methyl)-1-isopropylquinolin-4(1H)-one], the IC50 in assay [1] turned out to be 21 nM; in assay [2] it was 651 nM.

As a reminder, the IC50 is the concentration that inhibits the measured activity by half.
